From patent US7803930B2, “Antisense modulation of apolipoprotein B-expression” (Isis Pharmaceuticals, Inc., priority 2002, dated 2010)
In the oligonucleotide strings, read from the 5' end, every base follows the letter of its sugar. An asterisk marks phosphorothioate; unmarked linkages are phosphodiester. Other units and linkages are bracketed, terminal groups are in braces. A string of capitals states the bases alone. e = 2'-O-(2-methoxyethyl) (MOE); [5mC] = 5-methylcytosine; d = 2'-deoxy (DNA)

Test system: rabbit apolipoprotein B mRNA
Assay: Inhibition of rabbit apolipoprotein B mRNA levels in primary rabbit hepatocytes, real-time PCR
Format: cell-based
Set-up: % INHIB of rabbit apolipoprotein B mRNA levels: concentration or dose not given beside the values
Conditions: for Percent Inhibition of rabbit apolipoprotein B mRNA levels: averages from two experiments
Excerpt: Primary rabbit hepatocytes were purchased from Invitro Technologies (Gaithersburg, Md.) and maintained in Dulbecco's modified Eagle's medium (Gibco). When purchased, the cells had been seeded into 96-well plates for use in RT-PCR analysis and were confluent.
In accordance with the present invention, a series of oligonucleotides was designed to target different regions of rabbit apolipoprotein B, using published sequences (GenBank accession number X07480.1, incorporated herein as SEQ ID NO: 808, GenBank accession number M17780.1, incorporated herein as SEQ ID NO: 809, and a sequence was derived using previously described primers (Tanaka, Journ. Biol. Chem., 1993,268, 12713-12718) representing an mRNA of the rabbit apolipoprotein B, incorporated herein as SEQ ID NO: 810). “Target site” indicates the first (5′-most) nucleotide number on the particular target sequence to which the oligonucleotide binds. All compounds in Table 21 are chimeric oligonucleotides (“gapmers”) 20 nucleotides in length, composed of a central “gap” region consisting of ten 2′-deoxynucleotides, which is flanked on both sides (5′ and 3′ directions) by five-nucleotide “wings”. The wings are composed of 2′-methoxyethyl (2′-MOE)nucleotides. The internucleoside (backbone) linkages are phosphorothioate (P═S) throughout the oligonucleotide. All cytidine residues are 5-methylcytidines. The compounds were analyzed for their effect on rabbit apolipoprotein B mRNA levels in primary rabbit hepatocytes by quantitative real-time PCR as described in other examples herein. Primary rabbit hepatocytes were treated with 150 nM of the compounds in Table 21. For rabbit apolipoprotein B the PCR primers were: • forward primer: AAGCACCCCCAATGTCACC (SEQ ID NO: 811) • reverse primer: […] (SEQ ID NO: 812) and the PCR probe was: FAM-[…]-TAMRA (SEQ ID NO: 813) where FAM (PE-Applied Biosystems, Foster City, Calif.) is the fluorescent reporter dye) and TAMRA (PE-Applied Biosystems, Foster City, Calif.) is the quencher dye. Data are averages from two experiments. If present, “N.D.” indicates “no data”.
In accordance with the present invention, a subset of the antisense oligonuclotides in Example 42 was further investigated in dose-response studies. Treatment doses were 10, 50, 150 and 300 nM. ISIS 233160 (SEQ ID NO: 824), ISIS 233166 (SEQ ID NO: 830), ISIS 233172 (SEQ ID NO: 835), ISIS 233175 (SEQ ID NO: 838), and ISIS 233183 (SEQ ID NO: 846) were analyzed for their effect on rabbit apolipoprotein B mRNA levels in primary rabbit hepatocytes by quantitative real-time PCR as described in other examples herein.

| Substance | % INHIB of rabbit apolipoprotein B mRNA levels [%] | further results |
| --- | --- | --- |
| 233168 (antisense eG*eG*eA*e[5mC]*eT*dG*dT*dA*d[5mC]*d[5mC]*dT*d[5mC]*dA*dA*dG*e[5mC]*eT*eG*eG*eT) [compound 233168] | 0 | – |
| 233160 (antisense eA*eT*eT*eG*eG*dA*dA*dT*dA*dA*dT*dG*dT*dA*dT*e[5mC]*e[5mC]*eA*eG*eG) [compound 233160] | 81 | Percent Inhibition of rabbit apolipoprotein B mRNA levels (10 nM): 33%; Percent Inhibition of rabbit apolipoprotein B mRNA levels (50 nM): 67%; Percent Inhibition of rabbit apolipoprotein B mRNA levels (150 nM): 74%; Percent Inhibition of rabbit apolipoprotein B mRNA levels (300 nM): 80% |
| 233173 (antisense eT*eT*eG*eT*eG*dT*dT*d[5mC]*d[5mC]*dT*dT*dG*dA*dA*dG*e[5mC]*eG*eG*e[5mC]*e[5mC]) [compound 233173] | 3 | – |
| 233161 (antisense eT*eT*eG*eG*e[5mC]*dA*dT*dT*dA*dT*d[5mC]*d[5mC]*dA*dA*dT*eG*e[5mC]*eA*eG*eT) [compound 233161] | 28 | – |
| 233149 (antisense eT*eG*e[5mC]*eT*eT*dG*dG*dA*dG*dA*dA*dG*dG*dT*dA*eA*eG*eA*eT*e[5mC]) [compound 233149] | 0 | – |
| 233174 (antisense eT*eG*eT*eG*e[5mC]*dA*d[5mC]*dG*dG*dA*dT*dA*dT*dG*dA*eT*eA*eA*e[5mC]*eG) [compound 233174] | 21 | – |
| 233184 (antisense eT*eA*eA*eA*eG*dT*d[5mC]*d[5mC]*dA*dG*d[5mC]*dA*dT*dT*dG*eG*eT*eA*eT*eT) [compound 233184] | 69 | – |
| 233182 (antisense e[5mC]*eT*eT*eG*eA*dT*dA*d[5mC]*dT*dT*dG*dG*dT*dA*dT*e[5mC]*e[5mC]*eA*e[5mC]*eA) [compound 233182] | 59 | – |
| 233167 (antisense eT*e[5mC]*eA*eA*eG*d[5mC]*dT*dG*dG*dT*dT*dG*dT*dT*dG*e[5mC]*eA*e[5mC]*eT*eG) [compound 233167] | 28 | – |
